Assay results reported in patent publication US20130090303A1, “Agonists of PY2Y Receptor as a Treatment for Aortic Stenosis and Cardiovascular Calcification” (UNIVERSITE LAVAL, priority 2011, published 2013).

Columns and labels:
[1] = system: valve interstitial cells (VICs); assay: In vitro calcification of isolated valve interstitial cells (calcium by Arsenazo III method); format: cell-based; details: isolated human VICs, pro-calcifying medium 7 days; FIG. 2A/2B
Experimental: In isolated cells, calcium was measured by the Arsenazo III method (Côte N, et al. J Mol Cell Cardiol 2012;52:1191-202) and results reported as percent changes.
(§1) Human valve interstitial cells (VICs) were isolated by collagenase digestion. To provoke calcification, cells were incubated for 7 days with a pro-calcifying medium containing: DMEM+5% FBS, 10^−7 M insulin, 50 μg /ml ascorbic acid and NaH2PO4 at 2 mM.

Runx2, osteocalcin = assay: Real-time PCR expression of Runx2 and osteocalcin in isolated VICs; format: cell-based, Human; details: q-PCR normalized to HPRT, FIG. 2C
Experimental: RNA was also extracted from AS valves and cells during in vitro experiments. Total RNA was isolated with RNeasy micro kit from Qiagen (Qiagen, Mississauga, Ont, Canada). The RNA extraction protocol was performed according to manufacturer's instructions using 100 mg of tissue. The quality of total RNA was monitored by capillary electrophoresis (Experion, Biorad, Mississauga, Ont, Canada). Four (4) μg of RNA was reverse transcribed using the Quantitec Reverse Transcription Kit from Qiagen. Quantitative real-time PCR (q-PCR) was performed with Quantitec SYBR Green PCR kit from Qiagen in the Rotor-Gene 6000 system (Corbett Robotics Inc, San Francisco, Calif., USA). The following primers were obtained from (Invitrogen, Burlington, Ont, Canada): P2Y2, Runx2, osteocalcin. The expression of hypoxanthine-guanine phosphoribosyltransferase (HPRT) (Invitrogen, Burlington, On, Canada) as a reference gene was chosen to normalize the results.
as §1

Structure (SMILES) | calcification of isolated VICs [1] | expression of osteocalcin (Runx2, osteocalcin) | expression of the bone transcription factor, Runx2 (Runx2, osteocalcin)
O=c1ccn([C@@H]2O[C@H](COP(=O)(O)OP(=O)(O)OP(=O)(O)O)[C@@H](O)[C@H]2O)c(=S)[nH]1 [2-thioUTP] | reduced significantly calcification | decreased the expression | decreased the expression
Cc1ccc(C(=O)Nc2ccc(S(=O)(=O)O)c3cc(S(=O)(=O)O)cc(S(=O)(=O)O)c23)cc1NC(=O)c1cccc(NC(=O)Nc2cccc(C(=O)Nc3cc(C(=O)Nc4ccc(S(=O)(=O)O)c5cc(S(=O)(=O)O)cc(S(=O)(=O)O)c45)ccc3C)c2)c1 [suramin] | increased calcification |  | 
